# Assay results as given in patent US10800806B2, “Sterol derivatives and use thereof for treating diseases involving transformed astrocyte cells or for treating malignant haemopathies” (BETA INNOV, priority 2012, dated 2020).
# Entries after “also recorded” stand apart in the source; their conditions may differ.
# What was measured:
# [1] = test system: C6 cells; test: Anti-GBM activity in vitro on cultures of C6 cells (cell counting, protein assay, MTT test); format: cell-based, rat; settings: 15 μm, ethanol 3%
# Experimental: Plastic flat-bottomed 96-well culture plates (NUNC, USA) treated for cell culture (Sigma-Aldrich, ref. 114754) are used; 1500 cells are seeded per well in 200 μl of culture medium. At the time of treatment, 100 μl of pure culture medium, 100 μl of culture medium containing ethanol, or liposomes, or 100 μl of culture medium containing the active ingredients are added per well; the final volume of the culture medium, after treatment, is therefore 300 μl for all the wells.
# The cultures are incubated in a Sanyo incubator (Japan, model MCO-19AlC-UV) at 37° C. and in an atmosphere with 5% CO2 and saturated in humidity. The cells are observed with an inverted microscope (Nikon Eclipse TS100, Japan) and the photographs are taken with a camera (DIGITAL camera with c-mount; LABOVER, France). The culture hood is a microbiological safety hood MSC (thermo SCIENTIFIC, model HERA SAFE KS12, France).
# The type C6 cell line was obtained by Benda et al. (16) from rat brain tumours, induced by N-methylnitrosourea. This cell type is used as “in vitro” and “in vivo” model for evaluating anti-GBM potential. The lines originate from the former Strasbourg Neurochemistry Centre (U44 INSERM and UPR 416 CNRS).
# The culture medium is made up of 70% Minimum Essential Medium (MEM; (Fischer Scientifique, ref. 61100) and 30% Hanks solution (SIGMA, ref. H 9269). The following are added to the culture medium: foetal calf serum (FCS; Fischer Scientifique, ref. 10108165) at a final concentration of 5% (v/v), an antibiotic solution of ciprofloxacin hydrochloride 5 μg/mL (EUROMEDEX, ref. UC5074) and a solution of Fungizone 2.5 μg/mL (INVITROGEN, ref. 15290-026). The doubling time of this cell type is 17 h. • GBM lines of human origin
# The active ingredients are either dissolved in absolute ethanol (AnalaR, NORMAPUR, VWR, France) or in the form of a liposomal solution, such as 10 μl of the stock solutions diluted in 990 μl and then added to the culture wells (200 μl of culture medium) giving concentrations of 30.0, 15.0, 7.5 and 3.3 μM (final volume of culture medium per well BI-GBM: 300 μl).
# When the active ingredients are in ethanolic solution, the culture medium contains […] ethanol (v/v).
# A method of cell counting on photographs was used.
# For example, in the case of the cultures in 96-well plates and as a function of the magnification of the microscope used (objectives×10 or ×20, oculars×10), a photograph taken represents a field of view with a diameter equal to 1/5 of the diameter of a well. Therefore the total number of cells in a well is equal to […] the number of cells per photograph. This technique was compared with a standard technique (trypsinization of the cell layer, centrifugation of the cells, suspension of the cells in physiological saline solution and counting with a THOMA cell) in the case of the C6 cells. The results obtained are identical for both methods.
# The culture medium is withdrawn from each well and 50 μl of Laemmli buffer (0.1 ml of Tris, 0.8 ml of glycerol, 1.6 mL of 10% SDS, 8 ml q.s.f ultrapure water) is added per well.
# In control wells, 10 μl of a solution of bovine serum albumin range (crystallized BSA, Sigma) is added; the range is from 0 to 20 μg per well. The wells are then supplemented with 40 μl of Laemmli buffer. Finally, 200 μl of solution of BCA reagent is added (Pierce, USA; BCA Protein Assay Kit; ThemoScientific, France).
# The culture plates are incubated for 30 min at 37° C. The optical density for each well is read and quantified by a plate reader (BioRad, USA, iMark Microplate reader 12222) at 570 nm.
# This test makes it possible to detect the cellular respiration, especially the mitochondrial respiration. The stock solution of tetrazolium salt MTT (3-(4,5-dimethylthiazol-2-yl)-2,5-diphenyl tetrazolium bromide, Sigma-Aldrich, USA, ref. M5655) is prepared with 10 mg of MIT/ml of PBS buffer (phosphate-buffered saline, SIGMA, ref. D 1408). […]
# [2] = test system: CD133+ stem cells (U87-MG cultures); test: Immunolabelling of the CD133+ stem cells with the A/B peroxidase system; format: cell-based, human; settings: for CD133+ cells, percentage relative to the controls: 30 μM in ethanolic form
# Experimental: The anti-CD133 (poly, Abnova), anti-GFAP (poly, Sigma), anti-NFL (mono, Santa Cruz) and anti-fibroblast (ERTR7, Santa Cruz) primary antibodies are diluted to 1/100 in the case of the first three antibodies and to 1/50 in the case of the last.
# The secondary antibodies corresponding to recognition of the primary antibodies are anti-rabbit antibodies coupled to peroxidase (goat, Sigma), anti-mouse coupled to Dylight 488 (sheep, Sigma), anti-mouse coupled to Dylight 488 (sheep, Sigma) and anti-rat coupled to FITC (rabbit, Sigma). The dilutions are 1/4000, 1/1000, 1/4000 and 1/400 respectively.
# The cells are permeabilized for 5 min with 0.1% Triton X-100 (Sigma) in PBS (Fisher Scientific). The nonspecific sites are blocked with 2% BSA (Sigma) in PBS. Incubations are carried out for 1 h at ambient temperature, 48 h at 4° C., 24 h at 4° C. and 1 h at ambient temperature for the anti-CD133, anti-GFAP, anti-NFL and anti-Fibroblast antibodies respectively. Incubation with the secondary antibodies is carried out for 1 h at ambient temperature. The CD133 positive cells are detected by the DAB/H2O2 system (Sigma), and observed with an optical microscope.
# The immunolabelling is carried out as described above (section II, A).
# [3] = test system: prostate cancer cells (ATCC-HTB-81); test: Activity in vitro on prostate cancer cells; format: cell-based, human; settings: 30 μM, ethanolic form
# Experimental: They were obtained from ATCC (ref. ATCC-HTB-81). The culture medium is the same as that used for the liver cancer lines. The doubling time is 60 h. • Breast cancer cells
# The cancer cells used are from liver (ref. ATCC-HB-8065), prostate (ref. ATCC-HTB-81), breast (ref. ATCC-HTB-19) cancer cells, and from colon cancer cells (ECACC-HT29/219) of human origin, mentioned above.
SMILES,Live residual cells [1],"CD133+ cells, percentage relative to the controls ([2]; 4 days of treatment)","CD133+ cells, percentage relative to the controls ([2]; 22 days of treatment)","destruction of the CD133+ stem cells ([2]; ethanolic form, 22 days of treatment)",appearance of CD133+ stem cells after replacing the culture medium with fresh drug-free medium ([2]; medium replaced at 22 days),effect on cellular division and respiration [3]
"CC(C)CCCC(C)C1CCC2C3C(OC(=O)OC(C)(C)C)C=C4CC(OC(=O)C5COC(C)(C)O5)CCC4(C)C3CCC12C (stereo not drawn) [Molecule 2.a, 7-((tert-butoxycarbonyl)oxy)-10,13-dimethyl-17-(6-methylheptan-2-yl)-2,3,4,7,8,9,10,11,12,13,14,15,16,17-tetradecahydro-1H-cyclopenta[a]phenanthren-3-yl 2,2-dimethyl-1,3-dioxolane-4-carboxylate]",100%,,,,,
"CC(=O)OC1C=C2CC(OC(=O)C3COC(C)(C)O3)CCC2(C)C2CCC3(C)C(C(C)CCCC(C)C)CCC3C12 (stereo not drawn) [Molecule 2.b, 7-acetoxy-10,13-dimethyl-17-(6-methylheptan-2-yl)-2,3,4,7,8,9,10,11,12,13,14,15,16,17-tetradecahydro-1H-cyclopenta[a]phenanthren-3-yl 2,2-dimethyl-1,3-dioxolane-4-carboxylate]",,100%,0%,completely destroyed; also recorded: completely destroys the stem cells,does not lead to the appearance of CD133+ stem cells,no effect
